{"source": "patent US20230099441A1", "about": "“HETEROCYCLIC COMPOUND, APPLICATION THEREOF, AND COMPOSITION CONTAINING SAME” (GenEros Biopharma Ltd., priority 2019, published 2023)", "key": {"[1]": {"system": "STAT5 Y694 phosphorylation", "test": "HTRF experiment: STAT5 Y694 phosphorylation in Hela cells stimulated with human interferon beta", "type": "cell-based", "conditions": "2 hours pretreatment, 10 nM human interferon beta 30 minutes"}, "[2]": {"system": "STAT5 Y694 phosphorylation", "test": "Protein electrophoresis and blotting of STAT5 Y694 phosphorylation in Jurkat cells stimulated with human interferon beta", "type": "cell-based", "conditions": "for Inhibiting Ratio (0% for vehicle control): 1 hour pretreatment, 20 ng/ml human interferon beta 30 minutes, pSTAT5/GAPDH", "summary_of_the_method": "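Serum-free Jurkat cells pretreated with compound 1 h, then stimulated with 20 ng/ml human interferon beta for 30 min at 37° C. pSTAT5 measured by western blot with chemiluminescence, normalized to GAPDH and expressed as percent of DMSO control.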"}, "[3]": {"system": "mouse collagen-induced arthritis model", "test": "Therapeutic efficacy in a mouse collagen-induced arthritis model (clinical score)", "type": "in vivo", "conditions": "for clinical score of arthritis, Mean (the larger the value, the more severe the disease): mean of group, total score 0-12, oral, Methotrexate 0.25 mg/kg once a week, Tofacitinib 5 mg/kg once a day, X8 1 mg/kg once a day", "description": "Example of Effect 2: Evaluation of the Therapeutic Efficacy of X8 Compound in a Mouse Collagen-Induced Arthritis Model\nSixty male DBA/1J mice (9-10 weeks old, H-2q haplotype) were acclimatized in a standard animal room for one week and then randomly divided into 5 groups. Except for the healthy control group, the rest were inoculated with collagen antigen injection, and then received oral treatment with different compounds. The brief procedure was to mix bovine type II collagen (purchased from Chondrex, 20021) with an equal volume of Freund's complete adjuvant (purchased from Sigma, F5881), the concentration was 4 mg/ml, and it was treated with a homogenizer at a speed of 20,000 revolutions/min for 5-10 minutes. A needle was inserted between the left side of the dorsal caudal artery and the lateral vein of the mouse, and 50 microliters of modeling agent was injected subcutaneously. 21 days after the first injection, another injection was injected between the right side of the dorsal tail artery and the lateral vein of the mouse. After the first injection, oral administration was started. The drug was formulated with […] PEG300, and it was prepared for immediate use. […] The total score was between 0-12 points, and the swelling of the foot after vaccination was not calculated."}}}
{"smiles": "O=C(Cc1ccc(C(F)(F)F)cc1)N1CCC(n2c(=O)[nH]c3ccccc32)CC1", "note": "[Example X8, 1-(1-(2-(4-(trifluoromethyl)phenyl)acetyl)piperidin-4-yl)-1H-benzo[d]imidazole-2(3H)-one]", "values": [{"measurement": "Example of Effect 3: Inhibiting Ratio@10 μM (HTRF Experiment)", "setting": "[1]", "result": 22.60, "unit": "%"}, {"measurement": "Inhibiting Ratio (0% for vehicle control)", "setting": "[2]; 1 μM", "result": 6.9, "unit": "%"}, {"measurement": "Inhibiting Ratio (0% for vehicle control)", "setting": "[2]; 10 μM", "result": 31.4, "unit": "%"}, {"measurement": "Inhibiting Ratio (0% for vehicle control)", "setting": "[2]; 100 μM", "result": 95.6, "unit": "%"}, {"measurement": "Example of Effect 1: Inhibiting Ability (Protein Electrophoresis and Blotting)", "setting": "[2]; observed pSTAT5 bands at 10 μM and 100 μM", "result": "+"}, {"measurement": "therapeutic effect on severity of the disease (in words)", "setting": "[3]; X8 1 mg/kg once a day oral, compared with tofacitinib 5 mg/kg once a day", "result": "comparable effects to the tofacitinib treatment group, which significantly reduced the severity of the disease"}, {"measurement": "clinical score of arthritis, Mean (the larger the value, the more severe the disease)", "setting": "[3]; day 0", "result": 0.00}, {"measurement": "clinical score of arthritis, Mean (the larger the value, the more severe the disease)", "setting": "[3]; day 21", "result": 0.00}, {"measurement": "clinical score of arthritis, Mean (the larger the value, the more severe the disease)", "setting": "[3]; day 25", "result": 0.00}, {"measurement": "clinical score of arthritis, Mean (the larger the value, the more severe the disease)", "setting": "[3]; day 28", "result": 0.98}, {"measurement": "clinical score of arthritis, Mean (the larger the value, the more severe the disease)", "setting": "[3]; day 31", "result": 1.66}, {"measurement": "clinical score of arthritis, Mean (the larger the value, the more severe the disease)", "setting": "[3]; day 33", "result": 2.39}, {"measurement": "clinical score of arthritis, Mean (the larger the value, the more severe the disease)", "setting": "[3]; day 35", "result": 2.64}, {"measurement": "clinical score of arthritis, Mean (the larger the value, the more severe the disease)", "setting": "[3]; day 38", "result": 2.87}, {"measurement": "clinical score of arthritis, Mean (the larger the value, the more severe the disease)", "setting": "[3]; day 40", "result": 2.87}, {"measurement": "clinical score of arthritis, Mean (the larger the value, the more severe the disease)", "setting": "[3]; day 42", "result": 3.17}, {"measurement": "clinical score of arthritis, Mean (the larger the value, the more severe the disease)", "setting": "[3]; day 45", "result": 3.39}]}
